{"source": "patent US11000491B2", "about": "“Amino-aryl-benzamide compounds and methods of use thereof” (HEPANOVA, INC., priority 2017, dated 2021)", "key": {"ACC": {"system": "ACC", "assay": "Lipogenic gene mRNA by real-time qPCR in Huh7 cells", "assay_type": "cell-based", "details": "1 μM, 24 h", "source_text": "(§1) FIG. 8. Inhibition of various lipogenic gene mRNA levels following treatment with HPN-01. […] Sterol regulatory element-binding protein-1 (SREBP-1); Sterol regulatory element-binding protein-2 (SREBP-2); Fatty acid synthase (FASN); Stearoyl-CoA-desaturase (SCD1); Acetyl-CoA carboxylase (ACC); Elongation of very long chain fatty acids fatty acid elongase 6 (ELOVL6); Low density liporeceptor (LDLR); Fatty acid desaturase 1 (FADS1); Diacylglycerol 0-Acyltransferase 1 (DGAT1); Diacylglycerol 0-Acyltransferase 2 (DGAT2).\n(§2) Huh7 cells were treated with 1 μM of HPN-01 for 24 h, and the mRNA expression levels of various pivotal lipogenic enzymes were quantified by real-time qPCR. […] Folds of inhibition were as follows: SREBP-1: 2.98±0.23; SREBP-2: 4.01±0.31; FASN: 3.87±0.23; SCD1: 4.63±0.48; ACC: 4.12±0.34; ELOVL6: 2.84±0.22; LDLR: 3.02±0.11; FADS1: 3.06±0.17; DGAT1: 1.72±0.27; DGAT2: 3.77±0.45."}, "SCD1": {"system": "SCD1", "assay": "Lipogenic gene mRNA by real-time qPCR in Huh7 cells", "assay_type": "cell-based", "details": "1 μM, 24 h", "source_text": "as §1, §2"}, "SREBP-2": {"system": "SREBP-2", "assay": "Lipogenic gene mRNA by real-time qPCR in Huh7 cells", "assay_type": "cell-based", "details": "1 μM, 24 h", "source_text": "as §1, §2"}, "LDLR": {"system": "LDLR", "assay": "Lipogenic gene mRNA by real-time qPCR in Huh7 cells", "assay_type": "cell-based", "details": "1 μM, 24 h", "source_text": "as §1, §2"}, "FASN": {"system": "FASN", "assay": "Lipogenic gene mRNA by real-time qPCR in Huh7 cells", "assay_type": "cell-based", "details": "1 μM, 24 h", "source_text": "as §1, §2"}, "DGAT1": {"system": "DGAT1", "assay": "Lipogenic gene mRNA by real-time qPCR in Huh7 cells", "assay_type": "cell-based", "details": "1 μM, 24 h", "source_text": "as §1, §2"}, "ELOVL6": {"system": "ELOVL6", "assay": "Lipogenic gene mRNA by real-time qPCR in Huh7 cells", "assay_type": "cell-based", "details": "1 μM, 24 h", "source_text": "as §1, §2"}, "DGAT2": {"system": "DGAT2", "assay": "Lipogenic gene mRNA by real-time qPCR in Huh7 cells", "assay_type": "cell-based", "details": "1 μM, 24 h", "source_text": "as §1, §2"}, "FADS1": {"system": "FADS1", "assay": "Lipogenic gene mRNA by real-time qPCR in Huh7 cells", "assay_type": "cell-based", "details": "1 μM, 24 h", "source_text": "as §1, §2"}, "SREBP-1": {"system": "SREBP-1", "assay": "Lipogenic gene mRNA by real-time qPCR in Huh7 cells", "assay_type": "cell-based", "details": "1 μM, 24 h", "source_text": "as §1, §2"}, "[1]": {"system": "high fat diet-induced NAFLD/NASH mice", "assay": "High fat diet-induced NAFLD/NASH mice", "assay_type": "in vivo, C57BL/6 mice", "protocol": "FIG. 11. Study design of in vivo HPN-01 effects on high fat diet-induced NAFLD/NASH mice.\nEight-week old C57BL/6 mice were divided into a test group and a control group. The control group mice were fed with normal chow diet (NCD) for 24 weeks. The test group was further divided into a preventing group and a treatment group. In the preventing group, mice were fed with high-fat diet (HFD) and simultaneously treated with 25 mg/kg of HPN-01 or vehicle daily for 16 weeks, after which time the mice were euthanized and evaluated for NAFLD/NASH development. In the treatment group, mice were fed with HFD for 12 weeks to stimulate the development of NAFLD/NASH, and then treated with 25 mg/kg of HPN-01 or vehicle daily for additional 12 weeks. The mice were then euthanized and evaluated for the presence of NAFLD/NASH. This study design is illustrated in FIG. 11.\nTo determine the effect of HPN-01 on various fat-related molecules in the liver of mice from the study in Example 8, liver tissues were isolated and prepared and the levels of hepatic triglyceride and glycogen were measured.\nThe livers of mice from the study of Example 8 were also analysed for their levels of cholesterol, SREBP-1, and fatty acid synthesis. […] Likewise, SREBP-1 expression in HFD-fed mice with HPN-01 treatment was 0.52±0.06, a reduction of about 48% when compared with HFD-fed mice receiving only vehicle (FIG. 15B).\nPlasma cholesterol and triglyceride levels were determined in blood taken from mice in the study described in Example 8.\nLiver tissues from mice in the study of Example 8 were analysed for the expression level of inflammatory cytokines.\nLiver tissues from mice in the study of Example 8 were analysed for the expression levels of hepatic molecules involved in the formation of fibrotic scarring.\nLiver tissues were then analysed to determine the levels of various pro-fibrotic cytokines. […] The expression level of TIMP2, a fibrosis suppressor, was increased in the presence of HPN-01."}, "[2]": {"details": "HFD-fed mice with HPN-01 treatment"}, "[3]": {"details": "HFD-fed mice, 25 mg/kg daily, 25 mg/kg"}, "[4]": {"details": "HFD-fed mice, preventing group (25 mg/kg daily, 16 weeks)"}, "[5]": {"details": "HFD-fed mice, treatment group (HFD 12 weeks, then 25 mg/kg daily 12 weeks)"}}, "note": "Entries after “also recorded” stand apart in the source; their conditions may differ."}
{"smiles": "NC(=O)c1cc(-c2ccc(Cl)cc2)cc(-c2ccc(S(N)(=O)=O)cc2)c1N", "note": "[HPN-01, 2-amino-3-(p-sulfonamidophenyl)-5-(p-chlorophenyl) benzamide]", "values": [{"measurement": "Folds of inhibition ACC mRNA", "setting": "ACC", "value": "4.12±0.34", "unit": "fold"}, {"measurement": "Folds of inhibition SCD1 mRNA", "setting": "SCD1", "value": "4.63±0.48", "unit": "fold"}, {"measurement": "Folds of inhibition SREBP-2 mRNA", "setting": "SREBP-2", "value": "4.01±0.31", "unit": "fold"}, {"measurement": "Folds of inhibition LDLR mRNA", "setting": "LDLR", "value": "3.02±0.11", "unit": "fold"}, {"measurement": "Folds of inhibition FASN mRNA", "setting": "FASN", "value": "3.87±0.23", "unit": "fold"}, {"measurement": "Folds of inhibition DGAT1 mRNA", "setting": "DGAT1", "value": "1.72±0.27", "unit": "fold"}, {"measurement": "Folds of inhibition ELOVL6 mRNA", "setting": "ELOVL6", "value": "2.84±0.22", "unit": "fold"}, {"measurement": "Folds of inhibition DGAT2 mRNA", "setting": "DGAT2", "value": "3.77±0.45", "unit": "fold"}, {"measurement": "Folds of inhibition FADS1 mRNA", "setting": "FADS1", "value": "3.06±0.17", "unit": "fold"}, {"measurement": "Folds of inhibition SREBP-1 mRNA", "setting": "SREBP-1", "value": "2.98±0.23", "unit": "fold"}, {"measurement": "plasma cholesterol level", "setting": "[1]; HFD-fed mice receiving HPN-01", "value": "43.0 ± 15.5", "unit": "mg/dL"}, {"measurement": "plasma triglyceride level", "setting": "[1]; HFD-fed mice receiving HPN-01", "value": "31.2 ± 4.5", "unit": "mg/dL"}, {"measurement": "hepatic SREBP-1 expression (relative)", "setting": "[1]; [2]", "value": "0.52±0.06"}, {"measurement": "hepatic cholesterol level", "setting": "[1]; [2]", "value": "3.9±1.1", "unit": "mg per g tissue"}, {"measurement": "hepatic fatty acid synthesis", "setting": "[1]; [2]", "value": "13.2±2.8", "unit": "DPMs/mg"}, {"measurement": "size and color of liver", "setting": "[1]; HFD-fed mice, 25 mg/kg daily", "value": "very similar to the control mice"}, {"measurement": "LD deposition and inflammatory infiltration in liver sections (H&E, Oil-red-O)", "setting": "[1]; HFD-fed mice, 25 mg/kg daily, preventing and treatment groups", "value": "substantially diminished"}, {"measurement": "body weight increase / HFD-triggered obesity", "setting": "[1]; [3]", "value": "significantly remitted; also recorded: reversed HFD-triggered obesity"}, {"measurement": "fat deposition / visceral fat accumulation", "setting": "[1]; [3]", "value": "significantly remitted; also recorded: significantly alleviated visceral fat accumulation"}, {"measurement": "liver glycogen level", "setting": "[1]; [4]", "value": "8.4 ± 1.6", "unit": "µg/mg"}, {"measurement": "liver triglyceride level", "setting": "[1]; [4]", "value": "67.2 ± 28.3", "unit": "mg/g"}, {"measurement": "liver glycogen level", "setting": "[1]; [5]", "value": "13.3 ± 3.5", "unit": "µg/mg"}, {"measurement": "liver triglyceride level", "setting": "[1]; [5]", "value": "75.5 ± 19.8", "unit": "mg/g"}, {"measurement": "decrease of hepatic cholesterol vs vehicle", "setting": "[1]; HFD-fed mice, vs vehicle only", "value": "about 1.92 fold"}, {"measurement": "decrease of hepatic fatty acid synthesis vs vehicle", "setting": "[1]; HFD-fed mice, vs vehicle only", "value": "about 3.18 fold"}, {"measurement": "decrease of plasma cholesterol vs vehicle", "setting": "[1]; HFD-fed mice, vs vehicle only", "value": 2.75, "unit": "fold"}, {"measurement": "decrease of plasma triglyceride vs vehicle", "setting": "[1]; HFD-fed mice, vs vehicle only", "value": 1.87, "unit": "fold"}, {"measurement": "reduction of hepatic SREBP-1 expression vs vehicle", "setting": "[1]; HFD-fed mice, vs vehicle only", "value": "about 48%"}, {"measurement": "HFD induction of ITGA2, LOX, TIMP1, IGFBP1, IGFBP2, IGFBP3, IGFBP5, IGFBP6 and FGF-21 in liver", "setting": "[1]; liver tissue mRNA, HFD-fed mice", "value": "significantly suppressed"}, {"measurement": "HFD induction of hepatic expression of ICAM1(CD54), IL-1B, IL-8, MCP-1, THF-α and LIF", "setting": "[1]; liver tissue, HFD-fed mice", "value": "substantially abrogated; also recorded: suppressed"}, {"measurement": "expression level of TIMP2 (fibrosis suppressor) in liver", "setting": "[1]; liver tissue, HFD-fed mice", "value": "increased"}]}
